Measured values published in PubChem BioAssay (NCI).
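Cells were grown in 96-well plates and exposed to each compound for 48 hours at five concentrations; endpoints were interpolated linearly between bracketing concentrations, or set to the highest concentration if not reached. TGI is the concentration that stops growth completely.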 Where a SMILES comes first, the peptide text is derived from it. Bridges are numbered along the chain shown (N, C = ends). [ ]: non-standard residue; d: D form. The star is where a group is joined. ξ: configuration not given here. X26 = O=C(/C=C/C=C/C=C/C=C/C=C/C(=O)*)NC1=C(O)CCC1=O; Pro(4R-Me) = C[C@H]1CN[C@H](C(=O)O)C1; NMeA = CN[C@@H](C)C(=O)O; ξF = NC(Cc1ccccc1)C(=O)O; ξA = CC(N)C(=O)O

Experiments:
Assay in all cases: inhibition of tumour cell growth, NCI panel, 48 h
HOP-62 NSCLC = system: HOP-62 NSCLC
CCRF-CEM leukemia = system: CCRF-CEM leukemia
LOX IMVI melanoma = system: LOX IMVI melanoma
DU-145 prostate = system: DU-145 prostate
NCI-H522 lung = system: NCI-H522 lung
MCF7 breast = system: MCF7 breast
SK-MEL-28 melanoma = system: SK-MEL-28 melanoma
HL-60(TB) leukemia = system: HL-60(TB) leukemia
SW-620 colon = system: SW-620 colon
OVCAR-4 ovarian = system: OVCAR-4 ovarian
TK-10 renal = system: TK-10 renal
HCT-15 colon = system: HCT-15 colon
HS 578T breast = system: HS 578T breast
K-562 leukemia = system: K-562 leukemia
786-0 renal = system: 786-0 renal
CAKI-1 renal = system: CAKI-1 renal
NCI-H23 lung = system: NCI-H23 lung
RPMI-8226 leukemia = system: RPMI-8226 leukemia
KM12 colon = system: KM12 colon
M14 melanoma = system: M14 melanoma
MDA-MB-435 = system: MDA-MB-435
SF-268 CNS = system: SF-268 CNS
SF-539 CNS = system: SF-539 CNS
RXF 393 renal = system: RXF 393 renal
NCI/ADR-RES ovarian = system: NCI/ADR-RES ovarian
OVCAR-3 ovarian = system: OVCAR-3 ovarian
SK-OV-3 ovarian = system: SK-OV-3 ovarian
SR leukemia = system: SR leukemia
UACC-257 melanoma = system: UACC-257 melanoma
A549 NSCLC = system: A549 NSCLC
A498 renal = system: A498 renal
MDA-N = system: MDA-N
NCI-H460 lung = system: NCI-H460 lung
T-47D breast = system: T-47D breast
MDA-MB-231 breast = system: MDA-MB-231 breast
U251 CNS = system: U251 CNS
SK-MEL-2 melanoma = system: SK-MEL-2 melanoma
ACHN renal = system: ACHN renal
HCT-116 colon = system: HCT-116 colon
PC-3 prostate = system: PC-3 prostate
SF-295 CNS = system: SF-295 CNS
SN12C renal = system: SN12C renal
MALME-3M melanoma = system: MALME-3M melanoma
SNB-75 CNS = system: SNB-75 CNS
HCC-2998 colon = system: HCC-2998 colon
EKVX NSCLC = system: EKVX NSCLC
COLO 205 colon = system: COLO 205 colon
SK-MEL-5 melanoma = system: SK-MEL-5 melanoma
HT29 colon = system: HT29 colon
SNB-19 CNS = system: SNB-19 CNS
BT-549 breast = system: BT-549 breast
UACC-62 melanoma = system: UACC-62 melanoma
OVCAR-5 ovarian = system: OVCAR-5 ovarian
HOP-92 NSCLC = system: HOP-92 NSCLC
IGROV1 ovarian = system: IGROV1 ovarian
UO-31 renal = system: UO-31 renal
OVCAR-8 ovarian = system: OVCAR-8 ovarian
NCI-H226 lung = system: NCI-H226 lung
MOLT-4 leukemia = system: MOLT-4 leukemia

## CC1NC(=O)[C@H](C)N(C)C(=O)[C@@H]2CCCN2C(=O)[C@@H](NC(=O)C(Cc2ccccc2)NC(=O)/C=C/C=C/C=C/C=C/C=C/C(=O)NC2=C(O)CCC2=O)COC(=O)[C@@H]2C[C@@H](C)CN2C1=O (stereo partly drawn) (X26-[ξF]SP[NMeA][ξA][Pro(4R-Me)]; ester 2-C)
HOP-62 NSCLC
  TGI: > 100 µM
CCRF-CEM leukemia
  TGI: > 100 µM
LOX IMVI melanoma
  TGI: > 100 µM
DU-145 prostate
  TGI: > 100 µM
NCI-H522 lung
  TGI: > 100 µM
MCF7 breast
  TGI: > 100 µM
SK-MEL-28 melanoma
  TGI: > 100 µM
HL-60(TB) leukemia
  TGI: > 100 µM
SW-620 colon
  TGI: > 100 µM
OVCAR-4 ovarian
  TGI: > 100 µM
TK-10 renal
  TGI: > 100 µM
HCT-15 colon
  TGI: > 100 µM
HS 578T breast
  TGI: > 100 µM
K-562 leukemia
  TGI: > 100 µM
786-0 renal
  TGI: > 100 µM
CAKI-1 renal
  TGI: > 100 µM
NCI-H23 lung
  TGI: > 100 µM
RPMI-8226 leukemia
  TGI: > 100 µM
KM12 colon
  TGI: > 100 µM
M14 melanoma
  TGI: > 100 µM
MDA-MB-435
  TGI: > 100 µM
SF-268 CNS
  TGI: > 100 µM
SF-539 CNS
  TGI: > 100 µM
RXF 393 renal
  TGI: > 100 µM
NCI/ADR-RES ovarian
  TGI: > 100 µM
OVCAR-3 ovarian
  TGI: > 100 µM
SK-OV-3 ovarian
  TGI: > 100 µM
SR leukemia
  TGI: > 100 µM
UACC-257 melanoma
  TGI: > 100 µM
A549 NSCLC
  TGI: > 100 µM
A498 renal
  TGI: > 100 µM
MDA-N
  TGI: > 100 µM
NCI-H460 lung
  TGI: > 100 µM
T-47D breast
  TGI: > 100 µM
MDA-MB-231 breast
  TGI: > 100 µM
U251 CNS
  TGI: > 100 µM
SK-MEL-2 melanoma
  TGI: > 100 µM
ACHN renal
  TGI: > 100 µM
HCT-116 colon
  TGI: > 100 µM
PC-3 prostate
  TGI: > 100 µM
SF-295 CNS
  TGI: > 100 µM
SN12C renal
  TGI: > 100 µM
MALME-3M melanoma
  TGI: > 100 µM
SNB-75 CNS
  TGI: > 100 µM
HCC-2998 colon
  TGI: > 100 µM
EKVX NSCLC
  TGI: > 100 µM
COLO 205 colon
  TGI: > 100 µM
SK-MEL-5 melanoma
  TGI: > 100 µM
HT29 colon
  TGI: > 100 µM
SNB-19 CNS
  TGI: > 100 µM
BT-549 breast
  TGI: > 100 µM
UACC-62 melanoma
  TGI: > 100 µM
OVCAR-5 ovarian
  TGI: > 100 µM
HOP-92 NSCLC
  TGI: > 100 µM
IGROV1 ovarian
  TGI: > 100 µM
UO-31 renal
  TGI: > 100 µM

## CN(C)CCn1c(=O)c2ccc(NCCCN(C)CCCNc3ccc4c(=O)n(CCN(C)C)c(=O)n5c6ccccc6c(=O)c3c45)c3c(=O)c4ccccc4n(c1=O)c23
HOP-62 NSCLC
  TGI: 0.838 µM
CCRF-CEM leukemia
  TGI: 0.0819 µM
LOX IMVI melanoma
  TGI: 0.164 µM
DU-145 prostate
  TGI: 0.533 µM
NCI-H522 lung
  TGI: 0.517 µM
MCF7 breast
  TGI: 0.904 µM
SK-MEL-28 melanoma
  TGI: 1.94 µM
HL-60(TB) leukemia
  TGI: 1.06 µM
OVCAR-8 ovarian
  TGI: 0.49 µM
SW-620 colon
  TGI: 0.231 µM
TK-10 renal
  TGI: 1.48 µM
HCT-15 colon
  TGI: 0.421 µM
HS 578T breast
  TGI: 1.76 µM
K-562 leukemia
  TGI: 1.3 µM
786-0 renal
  TGI: 1.08 µM
CAKI-1 renal
  TGI: 0.426 µM
NCI-H23 lung
  TGI: 0.546 µM
RPMI-8226 leukemia
  TGI: 0.231 µM
KM12 colon
  TGI: 0.59 µM
M14 melanoma
  TGI: 1.9 µM
NCI-H226 lung
  TGI: 0.535 µM
MDA-MB-435
  TGI: 0.127 µM
SF-268 CNS
  TGI: 2.11 µM
SF-539 CNS
  TGI: 1.78 µM
MOLT-4 leukemia
  TGI: 0.0853 µM
RXF 393 renal
  TGI: 0.362 µM
NCI/ADR-RES ovarian
  TGI: 1.48 µM
OVCAR-3 ovarian
  TGI: 1.21 µM
SK-OV-3 ovarian
  TGI: 2.43 µM
SR leukemia
  TGI: 0.504 µM
UACC-257 melanoma
  TGI: 1.82 µM
A549 NSCLC
  TGI: 0.472 µM
A498 renal
  TGI: 2.13 µM
MDA-N
  TGI: 1.6 µM
NCI-H460 lung
  TGI: 0.139 µM
T-47D breast
  TGI: 8.33 µM
MDA-MB-231 breast
  TGI: 0.54 µM
U251 CNS
  TGI: 1.06 µM
SK-MEL-2 melanoma
  TGI: 2.44 µM
ACHN renal
  TGI: 0.949 µM
HCT-116 colon
  TGI: 1.03 µM
PC-3 prostate
  TGI: 0.654 µM
SF-295 CNS
  TGI: 1.54 µM
SN12C renal
  TGI: 1.18 µM
MALME-3M melanoma
  TGI: 2.33 µM
SNB-75 CNS
  TGI: 0.334 µM
HCC-2998 colon
  TGI: 0.224 µM
EKVX NSCLC
  TGI: 1.1 µM
COLO 205 colon
  TGI: 0.376 µM
SK-MEL-5 melanoma
  TGI: 1.17 µM
HT29 colon
  TGI: 1.06 µM
SNB-19 CNS
  TGI: 1.33 µM
BT-549 breast
  TGI: 1.75 µM
UACC-62 melanoma
  TGI: 1.58 µM
OVCAR-5 ovarian
  TGI: 3.56 µM
HOP-92 NSCLC
  TGI: 0.735 µM
IGROV1 ovarian
  TGI: 0.194 µM
UO-31 renal
  TGI: 0.53 µM

## Clc1cc(OC23CC4CC(CC(C4)C2)C3)nc(Cl)n1
HOP-62 NSCLC
  TGI: > 100 µM
CCRF-CEM leukemia
  TGI: 86.2 µM
LOX IMVI melanoma
  TGI: 36.1 µM
DU-145 prostate
  TGI: > 100 µM
NCI-H522 lung
  TGI: > 100 µM
MCF7 breast
  TGI: > 100 µM
SK-MEL-28 melanoma
  TGI: > 100 µM
HL-60(TB) leukemia
  TGI: 29.7 µM
OVCAR-8 ovarian
  TGI: > 100 µM
SW-620 colon
  TGI: > 100 µM
OVCAR-4 ovarian
  TGI: > 100 µM
TK-10 renal
  TGI: > 100 µM
HCT-15 colon
  TGI: > 100 µM
HS 578T breast
  TGI: 54.3 µM
K-562 leukemia
  TGI: > 100 µM
786-0 renal
  TGI: > 100 µM
NCI-H23 lung
  TGI: > 100 µM
RPMI-8226 leukemia
  TGI: > 100 µM
KM12 colon
  TGI: > 100 µM
M14 melanoma
  TGI: > 100 µM
MDA-MB-435
  TGI: > 100 µM
SF-268 CNS
  TGI: > 100 µM
SF-539 CNS
  TGI: > 100 µM
MOLT-4 leukemia
  TGI: > 100 µM
RXF 393 renal
  TGI: 85.8 µM
NCI/ADR-RES ovarian
  TGI: > 100 µM
OVCAR-3 ovarian
  TGI: > 100 µM
SK-OV-3 ovarian
  TGI: > 100 µM
SR leukemia
  TGI: 48.4 µM
UACC-257 melanoma
  TGI: > 100 µM
A549 NSCLC
  TGI: > 100 µM
A498 renal
  TGI: > 100 µM
MDA-N
  TGI: > 100 µM
NCI-H460 lung
  TGI: > 100 µM
T-47D breast
  TGI: > 100 µM
MDA-MB-231 breast
  TGI: > 100 µM
U251 CNS
  TGI: > 100 µM
SK-MEL-2 melanoma
  TGI: > 100 µM
ACHN renal
  TGI: > 100 µM
HCT-116 colon
  TGI: > 100 µM
PC-3 prostate
  TGI: > 100 µM
SF-295 CNS
  TGI: > 100 µM
SN12C renal
  TGI: > 100 µM
MALME-3M melanoma
  TGI: > 100 µM
SNB-75 CNS
  TGI: > 100 µM
HCC-2998 colon
  TGI: 29.6 µM
EKVX NSCLC
  TGI: > 100 µM
COLO 205 colon
  TGI: > 100 µM
SK-MEL-5 melanoma
  TGI: > 100 µM
HT29 colon
  TGI: > 100 µM
SNB-19 CNS
  TGI: > 100 µM
BT-549 breast
  TGI: > 100 µM
UACC-62 melanoma
  TGI: > 100 µM
OVCAR-5 ovarian
  TGI: > 100 µM
HOP-92 NSCLC
  TGI: 3.5 µM
IGROV1 ovarian
  TGI: > 100 µM
UO-31 renal
  TGI: 87.5 µM
